Entries after “also recorded” stand apart in the source; their conditions may differ.
Legend:
Assay type in all cases: in vivo, human
[1] = tested on: patients with eosinophilic gastritis (EG) and/or eosinophilic gastroenteritis (EGE); assay: Phase 2 study in EG and/or EGE: treatment responders
Description: (§1) 65 patients were enrolled in 3 arms. In the first arm, 22 patients received anti-Siglec-8 antibody (non-fucosylated IgG1 antibody HEKA) in the following doses: 0.3 mg/kg for first dose, and 1.0 mg/kg for second, third, and fourth doses (“low dose”). In the second arm, 22 patients received the anti-Siglec-8 antibody in the following doses: 0.3 mg/kg for first dose, 1.0 mg/kg for second dose, and 3.0 mg/kg for the third and fourth doses (“high dose”). Patients in the third arm received placebo. All doses were provided monthly.
(§2) Secondary endpoints included the percentage of responders to treatment and change in symptoms as reported by PRO questionnaire (both comparing week 13-14 vs. baseline), as well as an exploratory assessment of comorbid eosinophilic esophagitis (EoE). Symptoms reported by the PRO questionnaire included abdominal pain, nausea, diarrhea, vomiting, fullness before finishing a meal, loss of appetite, abdominal cramping, and bloating. Each of the 8 symptoms was measured on a scale from 0 to 10 (with 80 total points possible). This questionnaire captured the most significant symptoms of EG/EGE. Treatment responder was defined as >75% reduction in tissue biopsy eosinophil counts and >30% reduction in Total Symptom Score (TSS) from the PRO questionnaire at weeks 13-14. These endpoints were designed to show (1) tissue eosinophil depletion, (2) symptom improvement, and (3) that these effects occurred in the same individuals.

[2] = tested on: patients with eosinophilic gastritis (EG) and/or eosinophilic gastroenteritis (EGE); assay: Phase 2 study in EG and/or EGE: safety and tolerability
From the text: This Example describes results from a Phase 2 examining treatment of patients with eosinophilic gastritis (EG) and/or eosinophilic gastroenteritis (EGE) using a humanized, non-fucosylated IgG1 monoclonal anti-Siglec-8 antibody (HEKA). Specifically, this study evaluated the safety and tolerability of anti-Siglec-8 antibody in patients with EG and/or EGE.
as §1

[3] = tested on: patients with eosinophilic gastritis (EG) and/or eosinophilic gastroenteritis (EGE); assay: Phase 2 open-label extension study: infusion-related reactions with corticosteroid premedication; details: 58 patients to date; 80 mg oral prednisone 12-24 hours prior to first infusion, plus solumedrol, cetirizine, acetaminophen about 1 hour prior; 1 mg/kg first infusion then 3 mg/kg every 4 weeks
Description: Approximately 60 patients are enrolled in this extension study, based on the maximum enrollment from a Phase 2 study. Patients who complete the Phase 2 study have the option to receive anti-Siglec-8 antibody in an open-label fashion.
1 mg/kg anti-Siglec-8 antibody (non-fucosylated IgG1 antibody HEKA) is administered for the first infusion, followed by a dose of 3 mg/kg administered every 4 weeks thereafter. Patients receive up to 8 infusions of anti-Siglec-8 antibody administered every 28(±3) days.
Prior to the first infusion of AK002, 80 mg oral prednisone is given 12-24 hours prior to infusions and solumedrol (100 mg IV), cetirizine (10 mg oral), and acetaminophen (975-1000 mg oral) are given about 1 hour prior to infusion.
In this ongoing extension study, corticosteroid has been administered 12-24 hours prior to each of the first anti-Siglec-8 antibody dose (as described above).

[4] = tested on: patients with eosinophilic esophagitis (EoE); assay: Phase 2 study: exploratory assessment of comorbid eosinophilic esophagitis (EoE)
Description: as §1
as §2, with “These endpoints were designed to show (1) tissue eosinophil depletion, (2) symptom improvement, and (3) that these effects occurred in the same individuals.” left out

[5] = tested on: eosinophils per HPF observed in GI biopsies; assay: Phase 2 study in EG and/or EGE: change in eosinophils per HPF in GI biopsies
From the text: (§3) This study was a randomized, double-blind, placebo-controlled study. […] All patients reported an average weekly score of ≥3 (on a scale from 0-10), recorded for either abdominal pain, diarrhea and/or nausea on a Patient Reported Outcome (PRO) questionnaire during at least 2 out of 3 weeks of PRO collection. A minimum of four questionnaires were completed each qualifying week.
Further, all patients either failed or had disease symptoms not adequately controlled by standard-of-care treatments for EG/EGE symptoms, which could include proton pump inhibitors (PPIs), systemic or topical corticosteroids, and/or diet, among others.
In addition, each patient was confirmed to have EG and/or EGE by esophagogastroduodenoscopy (EGD), as defined by eosinophilia of the gastric mucosa ([…] eosinophils/HPF in 5 HPFs) and/or eosinophilia of the duodenal mucosa (30 eosinophils/HPF in 3 HPFs) from the EGD performed during the screening period, without any other cause for the gastric eosinophilia (e.g., parasitic or other infection or malignancy). For more details, see ClinicalTrials.gov Identifier NCT03496571.
as §1
The primary endpoint was the percentage of change in eosinophils per HPF observed in GI biopsies before and after receiving treatment or placebo. Mean percent change in eosinophil counts was calculated by comparing count at week 14 of treatment versus baseline count.

[6] = tested on: patients with eosinophilic gastritis (EG) and/or eosinophilic gastroenteritis (EGE); assay: Phase 2 study in EG and/or EGE: Total Symptom Score (TSS) from PRO questionnaire
From the text: as §3, §1, §2

anti-Siglec-8 antibody: humanized, non-fucosylated IgG1 monoclonal anti-Siglec-8 antibody (HEKA); VH SEQ ID NO: 6, VL SEQ ID NO: 16; heavy chain SEQ ID NO: 75, light chain SEQ ID NO: 76
percentage of responders ([1]; all treated patients, >75% reduction in tissue eosinophils and >30% reduction in TSS at weeks 13-14, p-value 0.0008): 69%
percentage of responders ([1]; high dose arm, weeks 13-14): 70%
percentage of responders ([1]; low dose arm, weeks 13-14): 68%
other significant AEs ([2]; Phase 2 study): no other significant adverse events (AEs) were observed
tolerability ([2]; Phase 2 study): generally well tolerated
IRRs that were mild to moderate ([2]; e.g. flushing, feeling of warmth, headache, nausea, dizziness): 95%
patients with at least 1 treatment-emergent adverse event (AE) ([2]; patients receiving antibody): 91%
drug-related serious AE (number) ([2]; was an IRR, patient recovered within 24 hours with no further sequelae): One
IRRs observed [3]: no IRRs have been observed
improvement in dysphagia ([4]; patients with EoE): substantial improvement in dysphagia
EoE patients showing <5 eosinophils per HPF ([4]; week 14 of treatment, 13 of 14 EoE patients): 93%
patients with gastric and duodenal eosinophil counts of <30/HPF ([5]; 37 out of 39 patients receiving antibody): 95%
mean reduction in eosinophil count ([5]; both treatment groups, baseline to weeks 13-14, p-value <0.0001): 95%
reduction in eosinophil count ([5]; high dose arm (0.3, 1.0, 3.0, 3.0 mg/kg monthly), baseline to weeks 13-14): 97%
reduction in eosinophil count ([5]; low dose arm (0.3, 1.0, 1.0, 1.0 mg/kg monthly), baseline to weeks 13-14): 95%
improvement across symptoms of the PRO questionnaire ([6]; 8 symptoms, baseline to end of treatment): improvement across all symptoms measured; also recorded: Improvements were observed across all symptoms
mean reduction in TSS ([6]; both treatment groups, baseline to weeks 13-14, p-value 0.0012): 54%
reduction in TSS ([6]; high dose arm, baseline to weeks 13-14): 58%
reduction in TSS ([6]; low dose arm, baseline to weeks 13-14): 49%
improvements in symptoms ([6]; on day 1 after the first infusion and maintained throughout the study): statistically significant improvements in symptoms

— US20220257758A1, “METHODS OF ADMINISTERING ANTI-SIGLEC-8 ANTIBODIES AND CORTICOSTEROIDS” (priority 2019, published 2022)
